Consider eight compounds from patent US20260159854A1, “NOVEL CARRIERS FOR NUCLEIC ACID AND/OR PROTEIN DELIVERY” (LUDWIG-MAXIMILIANS-UNIVERSITÄT MÜNCHEN, priority 2022, published 2026).

One series deals with HeLa cells. In words: CellTiterGlo assay (relative metabolic activity). The format is cell-based. As to conditions: pDNA polyplexes 200 ng/well, 24 h, vs non-reducible analogs. The procedure: HeLa cells were seeded 24 h prior to transfection (5000 cells/well) in 96-well plates. Immediately prior to transfection, the medium was replaced with suitable amounts of fresh medium containing 10% (v/v) FBS to reach a final volume of 100 μL during transfection. The nanoparticles were prepared as described in section 6.1 and transfected with indicated doses. The medium was removed at 24 h after transfection, and 25 μL of fresh, pre-warmed medium as well as 25 μL of CellTiterGlo® Reagent (Promega, Mannheim, Germany) were added to each well [S. Berger et al., Biomacromolecules 2021, 22, 1282; A. Krhač Levačić et al., J Controlled Release 2021, 339, 27]. After incubation on an orbital shaker for 30 min at RT, luminescence was recorded using a Centro LB 960 plate reader luminometer (Berthold Technologies, Bad Wildbad, Germany). The luminescent signals (in RLU) of the samples were normalized to the luminescent signal of the negative control (HBG buffer-treated control cells). Results were presented as relative metabolic activity related to the negative control. Experiments were performed as triplicates.
On the technique in general: In ATP-based viability assays light output follows the ATP content of the culture.

The test system of another series is N2a/eGFPLuc cells. In words: eGFP knock out efficiency of Cas9 mRNA/sgGFP1 polyplexes by flow cytometry. It counts as cell-based, murine. As to conditions: after 72 h. Here is the method: For Cas9 mRNA/sgRNA polyplexes, CleanCap® Cas9 mRNA (5moU) (Trilink Biotechnologies, San Diego, CA, USA) and sgRNA at a fixed weight ratio of 1:1 were mixed and diluted in HBG.
Calculated amounts of aminolipid at indicated N/P (nitrogen/phosphate) ratios (see above) were diluted in separate tubes of HBG. Equal volumes of nucleic acid solution and aminolipid solution were mixed by rapid pipetting and incubated 40 min at RT in a closed Eppendorf reaction tube.
Cas9 mRNA/sgRNA polyplex treatments were performed in triplicate in 96-well plates. N2a eGPFLuc cells were seeded 24 h prior to transfection (5000 cells/well). On the next day, the medium was replaced with 80 μL of fresh pre-warmed medium containing 10% (v/v) FBS. The nanoparticles were prepared as described above, and the volumes of 20, 10, and 5 μL of polyplex solution (2.5 μg/mL Cas9 mRNA and 2.5 μg/mL sgGFP1) were added. 20 μL HBG buffer per well was used as negative control. After 24 h of treatment, the cells were expanded, and the medium was replaced by 100 μL of fresh pre-warmed medium and incubated for additional 48 h. […] Only isolated viable cells were evaluated. The eGFP knock out efficiency was determined as the percentage of eGFP negative cells normalized to the control measurements with HBG buffer-treated cells.
Background: In flow cytometry, cells or beads pass a laser one at a time.

Series [1] can be described thus: Particle size, polydispersity and zeta potential measurement (DLS, ELS). It counts as physicochemical. The procedure: 6.6 Particle Size and Zeta Potential Measurement for pDNA, mRNA, siRNA, Cas9 mRNA/sgRNA and Cas9 mRNA/sgRNA/ssDNA Polyplexes as Well as mRNA LNPs
Measurements of size and zeta potential were performed with a Zetasizer Nano ZS (Malvern Instruments, Malvern, Worcestershire, U.K.) in a folded capillary cell (DTS1070) by dynamic and electrophoretic laser-light scattering (DLS, ELS). […] Samples were measured three times with six sub runs per measurement. For measurement of the zeta potential, all samples were diluted to 800 μL with HBG or HEPES (for siRNA polyplexes) directly before measurement. Parameters were identical to the size measurement apart from an equilibration time of 60 sec. Three measurements with 15 sub runs lasting 10 sec each were performed, and zeta potentials were calculated by the Smuchowski equation.

Series [2] has as its system N2a/eGFPLuc, DU145/eGFPLuc, and KB/eGFPLuc. In words: Gene silencing activity of siRNA polyplexes in three cell lines. It counts as cell-based, murine, human. The settings on record: N/P 18, 15.6 ng siRNA/well, 48 h.
In a further series the test system is N2a cells. In words: Co-delivery efficiency of mRNA/pDNA polyplexes by flow cytometry. It counts as cell-based, murine. As to conditions: N/P 18, 25 and 50 ng combined nucleic acid/well. Here is the method: CleanCap® mCherry mRNA (5moU) (Trilink Biotechnologies, San Diego, CA, USA) and pEGFP-N1 pDNA (Clontech Laboratories, Inc. (now Takara Bio USA, Inc., San Jose, CA, USA)) at a fixed weight ratio of 1:1 were mixed and diluted in HBG. Calculated amounts of aminolipid at indicated N/P (nitrogen/phosphate) ratios (see above) were diluted in separate tubes of HBG. Equal volumes of nucleic acid solution and aminolipid solution were mixed by rapid pipetting and incubated 40 min at RT in a closed Eppendorf reaction tube. The final concentration of nucleic acid in the polyplex solution was 5 μg/mL (2.5 μg/mL mCherry mRNA plus 2.5 μg/mL pEGFP-N1 pDNA).
mRNA/pDNA polyplex treatments were performed in triplicate in 96-well plates. N2a cells were seeded 24 h prior to transfection (10,000 cells/well). On the next day, the medium was replaced with 80 μL of fresh pre-warmed medium containing 10% (v/v) FBS. The nanoparticles were prepared as described above, and the volumes of 10 and 5 μL of polyplex solution (2.5 μg/mL mCherry mRNA and 2.5 μg/mL pEGFP-N1 pDNA) were added. 20 μL HBG buffer per well was used as negative control. After 24 h of treatment, cells were collected and re-suspended in PBS solution containing 10% (v/v) FBS (FACS buffer) for flow cytometric evaluation. All samples were analyzed by flow cytometry using a CytoFLEX S Flow Cytometer (Beckman Coulter, Brea, CA, USA). Shortly before the measurement, 1 ng/μL 4′, 6-diamidino-2-phenylindole (DAPI) was added and used to discriminate between viable and dead cells. The cellular fluorescence was assayed by excitation of DAPI at 405 nm and detection of emission at 450 nm. Only isolated viable cells were evaluated. Gates were set compared to control measurements with HBG buffer-treated cells. […] Flow cytometry data were analyzed using FlowJo™ v10.8 flow cytometric analysis software by FlowJo, LLC (Becton, Dickinson and Company, U.S.). The cellular fluorescence expression was assayed by excitation at 561 nm and 488 nm, the detection of emission at 610 nm and 530 nm for mCherry and eGFP, respectively.

Series [3] relates to N2a/eGFPLuc, KB/eGFPLuc, and CT26/eGFPLuc. The experiment in a line: Gene silencing activity of siRNA LNPs in three cell lines. The settings on record: N/P 9, 63 and 31 ng siRNA/well, 48 h. The format is cell-based.
For the next series, the system named is Huh7 cells. In words: Luciferase gene expression of mRNA LNPs in Huh7 cells. The format is cell-based, human. The settings on record: 62.5 ng mRNA/well, N/P 9.
Setting [4] is: mRNA polyplexes, 12.5 μg/mL CleanCap FLuc mRNA (5moU), N/P 12 (1611, 1719, 1722, 1732), N/P 24 (1614), N/P 18 (1621, 1747).
The mark [5] stands for this setting: mRNA LNPs, 12.5 μg/mL CleanCap FLuc mRNA (5moU), N/P 9, molar ratios see Table A.
The mark [6] stands for this setting: siRNA LNPs, siCtrl 25 μg/mL, N/P 9.

`CCCCCCCCCCCCN(CCCCCCCCCCCC)CCCCCCCC(=O)NCCSSCCNC(=O)CCC(=O)NCCCC[C@H](NC(=O)CCC(=O)NCCNCCNCCNCCNC(=O)[C@@H](N)CCCCNC(=O)CCC(=O)NCCSSCCNC(=O)CCCCCCCN(CCCCCCCCCCCC)CCCCCCCCCCCC)C(=O)O` [compound 1821, K(ssbb-12Oc)-Stp-K(ssbb-12Oc)]: in the series with HeLa cells, the “toxicity (relative metabolic activity, CellTiter Glo)” value is “significantly less toxic”.
Consider `CCCCCCCCN(CCCCCCCC)CCCCCCCC(=O)NCCCC[C@H](NC(=O)CCCCCCCN(CCCCCCCC)CCCCCCCC)C(=O)NCCSSCCNC(=O)CCC(=O)NCCCC[C@H](NC(=O)CCC(=O)NCCSSCCNC(=O)[C@H](CCCCNC(=O)CCCCCCCN(CCCCCCCC)CCCCCCCC)NC(=O)CCCCCCCN(CCCCCCCC)CCCCCCCC)C(=O)NCCNCCNCCNCCNC(=O)CCC(=O)NCCNCCNCCNCCNC(=O)CCC(=O)O` [compound 1824, [(8Oc)2)-K-ssbb]2-K-Stp2], for which, in the series with HeLa cells, the “toxicity (relative metabolic activity, CellTiter Glo)” value was “significantly less toxic”.
Regarding K(8Oc)2-Stp2-K[K(8Oc)2] [compound 1732], the “eGFP knock-out efficiency of Cas9 mRNA/sgRNA polyplexes” value with N2a/eGFPLuc cells is on record as “good knock-out efficiency”. Moreover, in series [1] (setting [4]), the Pdl amounted to 0.304, the Z-average was 98.2 nm and the Zeta potential came to 26.2 mV.
On to “K(12Oc)2-Stp-K[K(12Oc)2] [compound 1716]”, for which the “gene silencing efficiency of siRNA polyplexes in three cell lines” value in series [2] is on record as “great performance in all three tested cell lines”. Moreover, the “mCherry mRNA/eGFP pDNA co-expression (co-delivery efficiency)” value in the series with N2a cells is “most potent structures”. In series [1] (setting [5]), the Pdl is listed as 0.150, the Z-average is 200.9 nm and the Zeta potential is on record as −0.25 mV.
Consider K[K(10Oc)2]2-Stp [compound 1762], for which the “gene silencing (eGFP silencing) of siRNA LNPs” value in series [3] is reported as “approximately the same potential for eGFP silencing”. In series [1] (setting [6]), this compound returned a Pdl of 0.104, a Z-average of 244.3 nm and a Zeta potential of −3.2 mV.
Take K[K(12He)2]2-Stp [compound 1754]: in the series on Huh7 cells, the “RLU values of mRNA LNPs relative to DLin-MC3-DMA” value amounted to 10 fold. In series [1] (setting [5]), the Pdl is 0.187, the Z-average amounted to 171.0 nm and the Zeta potential came out at 1.11 mV. In series [1] (setting [6]), the Pdl was found to be 0.144, the Z-average came to 173.0 nm and the Zeta potential was found to be 2.2 mV.
On to K[K(14He)2]2-Stp [compound 1755], for which the “luciferase expression of mRNA LNPs relative to SM-102” value in the series with Huh7 cells was determined as 2 fold. Also, in series [1] (setting [5]), the Pdl is 0.220, the Z-average amounted to 149.6 nm and the Zeta potential came out at 2.26 mV. In series [1] (setting [6]), this compound came in with a Pdl of 0.287, a Z-average of 160.6 nm and a Zeta potential of 3.4 mV.
Turning to K[K(16Bu)2]2-Stp [compound 1753], in series [3], the “gene silencing (eGFP silencing) of siRNA LNPs” value is reported as “approximately the same potential for eGFP silencing”. Besides, in series [1] (setting [5]), the Pdl turned out to be 0.227, the Z-average is reported as 142.1 nm and the Zeta potential is given as 3.39 mV. In addition, in series [1] (setting [6]), the Pdl amounted to 0.292, the Z-average is given as 195.1 nm and the Zeta potential was found to be 2.6 mV.
